Laboratory results: patent US7468369B2, “Sulfonyl pyrrolidines, method for producing the same and their use as drugs” (Sanofi-Aventis, priority 2005, dated 2008)
Structures can show the parent of a compound that is named as a salt.

tested on: human ABCA1 promoter; test: ABCA1 promoter test (luciferase reporter in stably transfected THP1 cell line); assay type: cell-based; conditions: Homo sapiens, THP-1, 24 h; read-out: E50 ABCA1
Procedure: The potency of substances which activate expression of the human ABCA1 gene via its promoter is analyzed by using a stably transfected THP1 cell line (human monocyte cell line) which is referred to herein as ABCA1 reporter cell line. It contains a fragment, 3.2 kb in size and stably integrated into the genome, of the human ABCA1 promoter in front of a luciferase reporter element. Expression of the luciferase reporter gene is only low without addition of an ABCA1 expression activator. The substances stimulating ABCA1 expression bring about, via activation of the ABCA1 promoter, an enhanced expression of the luciferase reporter gene. The luciferase which is formed can be detected via an appropriate substrate by means of chemiluminescence.
Construction of the Cell Line
The ABCA1 reporter line was prepared as follows: firstly the neomycin resistance gene (Acc. No.: AJ000156) was introduced into the luciferase reporter plasmid pLG3basic (#1751, Promega) 3′ below the luciferase reporter element. Subsequently, an ABCA1 promoter fragment, 3.2 kb in size and amplified from human genomic DNA (#6550-1, Clontech) by the polymerase chain reaction, was cloned in 5′ above the luciferase reporter element. The reporter plasmid produced in this way was called pGL3BN-ABCA1P. Luciferase expression in this plasmid is controlled by the ABCA1 promoter. Cloning and sequencing of the construct took place in analogy to the description in Sambrook J et al. (Molecular cloning, Cold Spring Harbor Laboratory Press, 1989). For stable transfection into THP1 cells, firstly pGL3BN-ABCA1P was linearized with a restriction endonuclease and then introduced into the THP1 cells as stated in Ausubel, F. M. et al. (Current protocols in molecular biology, Vol. 1-3, John Wiley & Sons, Inc., 1995).
The activity of ABCA1 expression activators is determined in a 3-day test which is described below:
The ABCA1 reporter cell line comprises suspension cells. These are cultured until the concentration is 0.5×10^6 cells/ml in RPMI medium (#52400-025, Invitrogen) which is mixed with the following additions: 10% FCS (fetal calf serum; #16000-044, invitrogen), 0.5 mg/ml Geneticin (#10131-019, invitrogen) and 1% penicillin-streptomycin solution (#15140-122, invitrogen). The culturing takes place in standard cell culture flasks (#353112, Becton Dickinson) in a cell culture incubator at 37° C. in the presence of 5% CO2.
For the ABCA1 promoter test, the suspension cells are centrifuged at 1200 rpm in 50 ml tubes. The supernatant is aspirated off, and the pellet is resuspended in 15 ml of RPMI medium and counted in a cell counter. After dilution to 175 000 cells/ml, 0.1 μg/ml PMA (phorbol 12-myristate 13-acetate, #8139-5MG, Sigma) is added in order to induce differentiation of the monocytic THP1 suspension cells into adherent macrophages. 35 000 cells in each well are seeded in a 96-well microtiter plate with clear plastic base (#3610, Corning Costar). The plates are incubated in a cell culture incubator at 37° C. and 5% CO2 for 24 h.
The ABCA1 expression activators to be tested are dissolved in a concentration of 10 mM in DMSO. This stock solution is diluted in the RPMI medium (mixed with 0.1 μg/ml PMA) described above. Test substances are tested in 11 different concentrations in the range from […] to 330 pM. The medium of the ABCA1 reporter cell line seeded on day 1 is completely removed by aspiration and the diluted test substances are immediately added to the cells. The dilution and addition of the substances takes place with a pipetting robot (Beckman FX). The final volume of the test substances diluted in medium is 100 μl per well of a 96-well microtiter plate. The DMSO concentration in the test is less than 0.1% v/v in order to avoid cytotoxic effects of the solvent.
The test plates are incubated in an incubator at 37° C. and 5% CO2 for 24 h.
The ABCA1 reporter cells treated with the test substances are removed from the incubator and the medium is aspirated off. […]

SMILES	EC50 [nM]
Cc1ccc(C)c(N2CCN(C(=O)[C@H]3CN(S(=O)(=O)c4cccs4)C[C@H]3c3ccccc3)CC2)c1 (racemic) [Example 117, [4-(2,5-Dimethylphenyl)piperazin-1-yl]-[3,4-cis-4-phenyl-1-(thiophene-2-sulfonyl)pyrrolidin-3-yl]methanone]	291

same assay, conditions: Homo sapiens, THP-1; ABCA1 reporter cell line (THP1, PMA-differentiated), 24 h incubation, luciferase chemiluminescence; read-out: E50 ABCA1

EC50 [nM]	SMILES
2840	Cc1ccc([C@@H]2CN(S(=O)(=O)c3c(C)noc3C)C[C@H]2C(=O)N2CCN(c3cc(C)ccc3C)CC2)cc1 [Example 1, [1-(3,5-Dimethylisoxazole-4-sulfonyl)-3,4-trans-4-p-tolylpyrrolidin-3-yl]-[4-(2,5-dimethylphenyl)piperazin-1-yl]methanone trifluoroacetate]
4620	O=C([C@@H]1CN(S(=O)(=O)c2cc(Cl)c(Cl)s2)C[C@H]1c1ccccc1)N1CCN(c2ccccc2)CC1 [Example 21, [1-(4,5-Dichlorothiophene-2-sulfonyl)-3,4-trans-4-phenylpyrrolidin-3-yl]-(4-phenylpiperazin-1-yl)methanone]
432	O=C([C@@H]1CN(S(=O)(=O)c2cccs2)C[C@H]1c1ccccc1)N1CCN(c2cc(Cl)ccc2Cl)CC1 [Example 66, [4-(2,5-Dichlorophenyl)piperazin-1-yl]-[3,4-trans-4-phenyl-1-(thiophene-2-sulfonyl)pyrrolidin-3-yl]methanone trifluoroacetate]
869	Cc1ccc(C)c(N2CCN(C(=O)[C@@H]3CN(S(=O)(=O)c4cccc5nonc45)C[C@H]3c3ccccc3)CC2)c1 [Example 68, [1-(Benzene[1,2,5-oxadiazol-4-sulfonyl)-3,4-trans-4-phenylpyrrolidin-3-yl]-[4-(2,5-dimethylphenyl)piperazin-1-yl]methanone trifluoroacetate]
915	Cc1ccc(C)c(N2CCN(C(=O)[C@@H]3CN(S(=O)(=O)C(C)C)C[C@H]3c3ccccc3)CC2)c1 [Example 70, [4-(2,5-Dimethylphenyl)piperazin-1-yl]-[3,4-trans-4-phenyl-1-(propan-2-sulfonyl)pyrrolidin-3-yl]methanone trifluoroacetate]
241	Cc1ccc(C)c(N2CCN(C(=O)[C@@H]3CN(S(=O)(=O)c4cccnc4)C[C@H]3c3ccccc3)CC2)c1 [Example 72, [4-(2,5-Dimethylphenyl)piperazin-1-yl]-[3,4-trans-4-phenyl-1-(pyridine-3-sulfonyl)pyrrolidin-3-yl]methanone trifluoroacetate]
407	O=C([C@@H]1CN(S(=O)(=O)c2cccnc2)C[C@H]1c1ccccc1)N1CCN(c2cc(Cl)ccc2Cl)CC1 [Example 73, [4-(2,5-Dichlorophenyl)piperazin-1-yl]-[3,4-trans-4-phenyl-1-(pyridine-3-sulfonyl)pyrrolidin-3-yl]methanone trifluoroacetate]
340	Cc1cccc(S(=O)(=O)N2C[C@@H](C(=O)N3CCN(c4cc(Cl)ccc4Cl)CC3)[C@H](c3ccccc3)C2)c1 [Example 74, [4-(2,5-Dichlorophenyl)piperazin-1-yl]-[3,4-trans-4-phenyl-1-(toluene-3-sulfonyl)pyrrolidin-3-yl]methanone trifluoroacetate]
980	COc1ccc(S(=O)(=O)N2C[C@@H](C(=O)N3CCN(c4cc(Cl)ccc4Cl)CC3)[C@H](c3ccccc3)C2)cc1 [Example 75, [4-(2,5-Dichlorophenyl)piperazin-1-yl]-[1-(4-methoxybenzenesulfonyl)-3,4-trans-4-phenylpyrrolidin-3-yl]methanone trifluoroacetate]
3120	COc1ccc(OC)c(N2CCN(C(=O)[C@@H]3CN(S(=O)(=O)CC(F)(F)F)C[C@H]3c3ccccc3)CC2)c1 [Example 76, [4-(2,5-Dimethoxyphenyl)piperazin-1-yl]-[3,4-trans-4-phenyl-1-(2,2,2-trifluoroethanesulfonyl)pyrrolidin-3-yl]methanone trifluoroacetate]
1580	COc1ccc(S(=O)(=O)N2C[C@@H](C(=O)N3CCN(c4cc(OC)ccc4OC)CC3)[C@H](c3ccccc3)C2)cc1 [Example 79, [4-(2,5-Dimethoxyphenyl)piperazin-1-yl]-[1-(4-methoxybenzenesulfonyl)-3,4-trans-4-phenylpyrrolidin-3-yl]methanone trifluoroacetate]
3150	COc1ccc(OC)c(N2CCN(C(=O)[C@@H]3CN(S(=O)(=O)c4cccc(C)c4)C[C@H]3c3ccccc3)CC2)c1 [Example 80, [4-2,5-Dimethoxyphenyl)piperazin-1-yl]-[3,4-trans-4-phenyl-1-(toluene-3-sulfonyl)pyrrolidin-3-yl]methanone trifluoroacetate]
1820	COc1ccc(OC)c(N2CCN(C(=O)[C@@H]3CN(S(=O)(=O)c4c(C)noc4C)C[C@H]3c3ccccc3)CC2)c1 [Example 81]
1490	COc1cccc(S(=O)(=O)N2C[C@@H](C(=O)N3CCN(c4cc(OC)ccc4OC)CC3)[C@H](c3ccccc3)C2)c1 [Example 82, [4-(2,5-Dimethoxyphenyl)piperazin-1-yl]-[1-(3-methoxybenzenesulfonyl)-3,4-trans-4-phenylpyrrolidin-3-yl]methanone trifluoroacetate]
3000	COc1ccc(OC)c(N2CCN(C(=O)[C@@H]3CN(S(=O)(=O)c4cccc5nonc45)C[C@H]3c3ccccc3)CC2)c1 [Example 83, [1-(Benzo[1,2,5]oxadiazole-4-sulfonyl)-3,4-trans-4-phenylpyrrolidin-3-yl]-[4-1-(2,5-dimethoxyphenyl)piperazin-1-yl]methanone trifluoroacetate]
2670	COc1ccc(OC)c(N2CCN(C(=O)[C@@H]3CN(S(=O)(=O)c4cccs4)C[C@H]3c3ccccc3)CC2)c1 [Example 84, [4-(2,5-Dimethoxyphenyl)piperazin-1-yl]-[3,4-trans-4-phenyl-1-(thiophene-2-sulfonyl)pyrrolidin-3-yl]methanone trifluoroacetate]
260	Cc1ccccc1S(=O)(=O)N1C[C@@H](C(=O)N2CCN(c3cc(Cl)ccc3Cl)CC2)[C@H](c2ccccc2)C1 [Example 85, [[4-(2,5-Dichlorophenyl)piperazin-1-yl]-[3,4-trans-4-phenyl-1-(toluene-2-sulfonyl)pyrrolidin-3-yl]methanone trifluoroacetate]
1230	Cc1ccc(C)c(N2CCN(C(=O)[C@@H]3CN(S(=O)(=O)c4c(C)noc4C)C[C@H]3c3ccc4c(c3)OCO4)CC2)c1 [Example 87, [3,4-trans-4-Benzo[1,3]dioxol-5-yl-1-(3,5-dimethylisoxazole-4-sulfonyl)-pyrrolidin-3-yl]-[4-(2,5-dimethylphenyl)piperazin-1-yl]methanone trifluoroacetate]
2720	COc1cccc(S(=O)(=O)N2C[C@@H](C(=O)N3CCN(c4cc(C)ccc4C)CC3)[C@H](c3ccc4c(c3)OCO4)C2)c1 [Example 88, [3,4-trans-4-Benzo[1,3]dioxol-5-yl-1-(3-methoxybenzenesulfonyl)pyrrolidin-3-yl]-[4-(2,5-dimethylphenyl)piperazin-1-yl]methanone trifluoroacetate]
16800	Cc1ccc(C)c(N2CCN(C(=O)[C@@H]3CN(S(=O)(=O)c4c(C)noc4C)C[C@H]3C)CC2)c1 [Example 90, [[1-(3,5-Dimethylisoxazole-4-sulfonyl)-3,4-trans-4-methylpyrrolidin-3-yl]-[4-(2,5-dimethylphenyl)piperazin-1-yl]methanone trifluoroacetate]
